# In ChEMBL document CHEMBL1201862, “PubChem BioAssay data set” (2004):
#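 Test compounds were applied to cells in 96-well plates for 48 hours at 5 doses. The concentration for 50% growth inhibition is given as GI50.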 Calls of active or inactive are those of the source. No stated cut-off is given here; in the data, active = GI50 up to about 1.1 µM and inactive = higher.
# Columns and labels:
# Test in all cases: growth of human tumour cells (NCI), 48 h
# [1] = tested on: SF-295
# [2] = tested on: SF-268
# [3] = tested on: CCRF-CEM
# [4] = tested on: OVCAR-8
# [5] = tested on: IGROV-1
# [6] = tested on: SK-MEL-28
# [7] = tested on: SW-620
# [8] = tested on: LXFL 529
# [9] = tested on: DMS-114
# [10] = tested on: MOLT-4
# [11] = tested on: M14
# [12] = tested on: OVCAR-3
# [13] = tested on: NCI-H522
# [14] = tested on: UACC-257
# [15] = tested on: LOX IMVI
# [16] = tested on: NCI-H460
# [17] = tested on: UACC-62
# [18] = tested on: HOP-92
# [19] = tested on: SNB-19
# [20] = tested on: M19-MEL
# [21] = tested on: HCC 2998
# [22] = tested on: K562
# [23] = tested on: OVCAR-4
# [24] = tested on: Malme-3M
# [25] = tested on: TK-10
# [26] = tested on: UO-31
# [27] = tested on: DLD-1
# [28] = tested on: SR
# [29] = tested on: HT-29
# [30] = tested on: CAKI-1
# [31] = tested on: SNB-75
# [32] = tested on: HL-60
# [33] = tested on: OVCAR-5
# [34] = tested on: RXF 631
# [35] = tested on: HCT-116
# [36] = tested on: SK-OV-3
# [37] = tested on: XF498
# [38] = tested on: SF-539
# [39] = tested on: ACHN
# [40] = tested on: A549
# [41] = tested on: 786-0
# [42] = tested on: COLO 205
# [43] = tested on: HOP-62
# [44] = tested on: HOP-18
# [45] = tested on: KM-20L2
# [46] = tested on: EKVX
# [47] = tested on: RPMI-8226
# [48] = tested on: HCT-15
# [49] = tested on: KM12
# [50] = tested on: SK-MEL-2
# [51] = tested on: NCI-H23
# [52] = tested on: NCI-H226
# [53] = tested on: SN12C
# [54] = tested on: DMS-273
# [55] = tested on: RXF 393
# [56] = tested on: A498
# [57] = tested on: U-251
# [58] = tested on: SNB-78
# [59] = tested on: SK-MEL-5
smiles,measurement,setting,value
O=c1oc2c3ccc4ccccc4c3n(CCCN3CCCCC3)c2c2ccccc12,GI50,[1],46.9 µM (inactive)
same,GI50,[2],59.2 µM (inactive)
same,GI50,[3],17.3 µM (inactive)
same,GI50,[4],32.7 µM (inactive)
same,GI50,[5],> 100 µM (inactive)
same,GI50,[6],19.1 µM (inactive)
same,GI50,[7],5.62 µM (inactive)
same,GI50,[8],62.7 µM (inactive)
same,GI50,[9],> 100 µM (inactive)
same,GI50,[10],3.24 µM (inactive)
same,GI50,[11],11.5 µM (inactive)
same,GI50,[12],> 100 µM (inactive)
same,GI50,[13],> 100 µM (inactive)
same,GI50,[14],33.6 µM (inactive)
same,GI50,[15],> 100 µM (inactive)
same,GI50,[16],14.7 µM (inactive)
same,GI50,[17],> 100 µM (inactive)
same,GI50,[18],> 100 µM (inactive)
same,GI50,[19],> 100 µM (inactive)
same,GI50,[20],63.2 µM (inactive)
same,GI50,[21],> 100 µM (inactive)
same,GI50,[22],10.2 µM (inactive)
same,GI50,[23],45.9 µM (inactive)
same,GI50,[24],20.7 µM (inactive)
same,GI50,[25],42.1 µM (inactive)
same,GI50,[26],> 100 µM (inactive)
same,GI50,[27],25.2 µM (inactive)
same,GI50,[28],3.59 µM (inactive)
same,GI50,[29],8.39 µM (inactive)
same,GI50,[30],> 100 µM (inactive)
same,GI50,[31],52.2 µM (inactive)
same,GI50,[32],17.2 µM (inactive)
same,GI50,[33],> 100 µM (inactive)
same,GI50,[34],46.7 µM (inactive)
same,GI50,[35],16.1 µM (inactive)
same,GI50,[36],> 100 µM (inactive)
same,GI50,[37],64.6 µM (inactive)
same,GI50,[38],19.4 µM (inactive)
same,GI50,[39],> 100 µM (inactive)
same,GI50,[40],34 µM (inactive)
same,GI50,[41],18.7 µM (inactive)
same,GI50,[42],10.9 µM (inactive)
same,GI50,[43],> 100 µM (inactive)
same,GI50,[44],> 100 µM (inactive)
same,GI50,[45],19.5 µM (inactive)
same,GI50,[46],> 100 µM (inactive)
same,GI50,[47],32.1 µM (inactive)
same,GI50,[48],29.1 µM
same,GI50,[49],26.5 µM (inactive)
same,GI50,[50],> 100 µM (inactive)
Cc1ccc(N(C(=O)CC(=O)NN)C(=O)c2ccccc2Cl)cc1,GI50,[1],> 100 µM (inactive)
same,GI50,[2],> 100 µM (inactive)
same,GI50,[3],> 100 µM (inactive)
same,GI50,[4],> 100 µM (inactive)
same,GI50,[5],> 100 µM (inactive)
same,GI50,[6],> 100 µM (inactive)
same,GI50,[7],> 100 µM (inactive)
same,GI50,[8],> 100 µM (inactive)
same,GI50,[9],> 100 µM (inactive)
same,GI50,[10],> 100 µM (inactive)
same,GI50,[11],> 100 µM (inactive)
same,GI50,[12],> 100 µM (inactive)
same,GI50,[13],> 100 µM (inactive)
same,GI50,[14],> 100 µM (inactive)
same,GI50,[15],> 100 µM (inactive)
same,GI50,[16],> 100 µM (inactive)
same,GI50,[17],> 100 µM (inactive)
same,GI50,[18],> 100 µM (inactive)
same,GI50,[19],> 100 µM (inactive)
same,GI50,[20],> 100 µM (inactive)
same,GI50,[21],> 100 µM (inactive)
same,GI50,[22],> 100 µM (inactive)
same,GI50,[23],> 100 µM (inactive)
same,GI50,[24],> 100 µM (inactive)
same,GI50,[51],> 100 µM (inactive)
same,GI50,[26],> 100 µM (inactive)
same,GI50,[27],> 100 µM (inactive)
same,GI50,[52],> 100 µM (inactive)
same,GI50,[53],> 100 µM (inactive)
same,GI50,[54],> 100 µM (inactive)
same,GI50,[29],> 100 µM (inactive)
same,GI50,[30],> 100 µM (inactive)
same,GI50,[31],> 100 µM (inactive)
same,GI50,[32],> 100 µM (inactive)
same,GI50,[55],> 100 µM (inactive)
same,GI50,[33],> 100 µM (inactive)
same,GI50,[34],> 100 µM (inactive)
same,GI50,[35],> 100 µM (inactive)
same,GI50,[36],> 100 µM (inactive)
same,GI50,[37],> 100 µM (inactive)
same,GI50,[38],> 100 µM (inactive)
same,GI50,[39],> 100 µM (inactive)
same,GI50,[56],> 100 µM (inactive)
same,GI50,[40],> 100 µM (inactive)
same,GI50,[41],> 100 µM (inactive)
same,GI50,[42],> 100 µM (inactive)
same,GI50,[43],> 100 µM (inactive)
same,GI50,[44],> 100 µM (inactive)
same,GI50,[45],> 100 µM (inactive)
same,GI50,[46],> 100 µM (inactive)
same,GI50,[57],> 100 µM (inactive)
same,GI50,[47],> 100 µM (inactive)
same,GI50,[48],> 100 µM
same,GI50,[49],> 100 µM (inactive)
same,GI50,[58],> 100 µM (inactive)
COC(=O)C(Cc1nc2ccc(Cl)cc2nc1O)C(=O)C(=O)Nc1ccccc1[N+](=O)[O-] (stereo not drawn),GI50,[1],> 100 µM (inactive)
same,GI50,[2],> 100 µM (inactive)
same,GI50,[3],> 100 µM (inactive)
same,GI50,[4],> 100 µM (inactive)
same,GI50,[5],> 100 µM (inactive)
same,GI50,[6],> 100 µM (inactive)
same,GI50,[7],> 100 µM (inactive)
same,GI50,[8],> 100 µM (inactive)
same,GI50,[9],> 100 µM (inactive)
same,GI50,[10],> 100 µM (inactive)
same,GI50,[11],> 100 µM (inactive)
same,GI50,[12],> 100 µM (inactive)
same,GI50,[13],> 100 µM (inactive)
same,GI50,[14],> 100 µM (inactive)
same,GI50,[15],> 100 µM (inactive)
same,GI50,[16],> 100 µM (inactive)
same,GI50,[17],> 100 µM (inactive)
same,GI50,[59],> 100 µM (inactive)
same,GI50,[19],> 100 µM (inactive)
same,GI50,[20],> 100 µM (inactive)
same,GI50,[21],> 100 µM (inactive)
same,GI50,[22],> 100 µM (inactive)
same,GI50,[23],> 100 µM (inactive)
same,GI50,[24],> 100 µM (inactive)
same,GI50,[51],> 100 µM (inactive)
same,GI50,[25],> 100 µM (inactive)
same,GI50,[26],> 100 µM (inactive)
same,GI50,[27],> 100 µM (inactive)
same,GI50,[52],> 100 µM (inactive)
same,GI50,[28],> 100 µM (inactive)
same,GI50,[53],> 100 µM (inactive)
same,GI50,[54],> 100 µM (inactive)
same,GI50,[29],> 100 µM (inactive)
same,GI50,[30],> 100 µM (inactive)
same,GI50,[31],> 100 µM (inactive)
same,GI50,[32],> 100 µM (inactive)
same,GI50,[55],> 100 µM (inactive)
same,GI50,[33],> 100 µM (inactive)
same,GI50,[34],> 100 µM (inactive)
same,GI50,[35],> 100 µM (inactive)
same,GI50,[36],> 100 µM (inactive)
same,GI50,[37],> 100 µM (inactive)
same,GI50,[38],> 100 µM (inactive)
same,GI50,[39],> 100 µM (inactive)
same,GI50,[56],> 100 µM (inactive)
same,GI50,[40],> 100 µM (inactive)
same,GI50,[41],> 100 µM (inactive)
same,GI50,[42],> 100 µM (inactive)
same,GI50,[43],> 100 µM (inactive)
same,GI50,[44],93.8 µM (inactive)
same,GI50,[45],> 100 µM (inactive)
same,GI50,[46],7.8 µM (inactive)
same,GI50,[57],> 100 µM (inactive)
same,GI50,[47],> 100 µM (inactive)
same,GI50,[48],> 100 µM
same,GI50,[49],> 100 µM (inactive)
same,GI50,[50],> 100 µM (inactive)
same,GI50,[58],> 100 µM (inactive)
